Laboratory results: ChEMBL document CHEMBL1201862, “PubChem BioAssay data set” (2004)
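Interpolation was linear, between the two tested concentrations surrounding the appropriate level; five concentrations were tested over 48 hours in 96-well plates. GI50 marks 50% less growth.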 Calls of active or inactive are those of the source. No stated cut-off is given here; in the data, active = GI50 up to about 1.1 µM and inactive = higher.

Columns and labels:
Assay in all cases: growth of human tumour cells (NCI), 48 h
[1] = tested on: NCI-H23
[2] = tested on: M14
[3] = tested on: SK-MEL-28
[4] = tested on: NCI-H226
[5] = tested on: Malme-3M
[6] = tested on: MOLT-4
[7] = tested on: UO-31
[8] = tested on: SF-268
[9] = tested on: A549
[10] = tested on: HCC 2998
[11] = tested on: SK-MEL-5
[12] = tested on: CCRF-CEM
[13] = tested on: OVCAR-8
[14] = tested on: SR
[15] = tested on: HOP-92
[16] = tested on: PC-3
[17] = tested on: DU-145
[18] = tested on: NCI/ADR-RES
[19] = tested on: Hs-578T

Measured: GI50

Cc1ccc(NC(=O)CSc2nnc(Cc3ccccc3)o2)cc1
inactive: [1] > 100 µM | [2] > 100 µM | [3] > 100 µM | [4] > 100 µM | [5] > 100 µM | [6] > 100 µM | [7] > 100 µM | [8] > 100 µM | [9] > 100 µM | [10] > 100 µM | [11] > 100 µM | [12] > 100 µM | [13] 97.9 µM

CCOC(=O)c1c(NNc2ccccc2)nc2ccccc2c1-c1ccccc1
inactive: [14] 21.4 µM | [1] 19.5 µM | [2] 27.3 µM | [3] 34 µM | [4] 28.2 µM | [5] 29.1 µM | [6] 12.8 µM | [7] 25.8 µM | [15] 27.9 µM | [8] 31.1 µM | [9] 34.5 µM | [10] 55 µM | [11] 20.4 µM | [12] 10.9 µM | [13] 20.4 µM

Cc1ccc(S(=O)(=O)NC(C)C(=O)O)cc1 (stereo not given)
inactive: [1] > 100 µM | [2] > 100 µM | [3] > 100 µM | [4] > 100 µM | [5] > 100 µM | [6] > 100 µM | [7] > 100 µM | [15] > 100 µM | [8] > 100 µM | [9] > 100 µM | [10] > 100 µM | [11] > 100 µM | [13] > 100 µM

COc1cc2ccc3c4cc(OC)c(OCc5ccccc5)cc4cnc3c2cc1OC
inactive: [1] > 100 µM | [2] > 100 µM | [3] > 100 µM | [5] > 100 µM | [6] 70.6 µM | [7] 70 µM | [8] > 100 µM | [9] > 100 µM | [10] > 100 µM | [11] > 100 µM | [12] > 100 µM | [13] > 100 µM

CCSC1=N/C(=C\c2ccccc2O)C(Nc2ccc(C)cc2)=N1
inactive: [16] 25.9 µM | [1] 56 µM | [2] 48.8 µM | [3] 51.1 µM | [17] 90.2 µM | [4] 50.5 µM | [5] 33.3 µM | [6] 29.2 µM | [7] > 100 µM | [15] 36.1 µM | [18] 56 µM | [19] 56.1 µM | [8] 71.8 µM | [9] 47.4 µM | [11] 30.2 µM | [12] 31 µM | [13] 80.4 µM

COC(=O)C(=O)C(C(=O)C=C(C)C)C(=O)C(=O)Nc1cccc(C(C)=O)c1 (stereo not given)
inactive: [14] > 100 µM | [1] > 100 µM | [2] > 100 µM | [3] > 100 µM | [4] > 100 µM | [5] > 100 µM | [6] > 100 µM | [7] > 100 µM | [8] > 100 µM | [9] > 100 µM | [10] > 100 µM | [11] > 100 µM | [12] > 100 µM | [13] > 100 µM

CC(C)(C)OC(=O)N1C(=O)C2CCCC21 (stereo not given)
inactive: [14] > 100 µM | [16] > 100 µM | [1] > 100 µM | [2] > 100 µM | [3] > 100 µM | [17] > 100 µM | [4] > 100 µM | [6] > 100 µM | [15] > 100 µM | [18] > 100 µM | [19] > 100 µM | [8] > 100 µM | [9] > 100 µM | [10] > 100 µM | [11] > 100 µM | [12] > 100 µM | [13] > 100 µM

Cc1cccc(NC2=NCCO2)c1Cl
inactive: [14] > 100 µM | [1] > 100 µM | [2] > 100 µM | [3] > 100 µM | [17] > 100 µM | [4] > 100 µM | [5] > 100 µM | [6] > 100 µM | [7] > 100 µM | [15] 32.7 µM | [18] > 100 µM | [19] > 100 µM | [8] > 100 µM | [9] > 100 µM | [10] > 100 µM | [11] > 100 µM | [12] > 100 µM | [13] > 100 µM

CCNc1nnc(CSc2nc(-c3ccccc3)c(-c3ccccc3)[nH]2)s1
inactive: [14] 31 µM | [1] 26.1 µM | [2] 17.5 µM | [3] 14.6 µM | [4] 13.4 µM | [5] 21.5 µM | [6] 20.5 µM | [7] 14 µM | [15] 15.8 µM | [8] 15.7 µM | [9] 28.7 µM | [11] 11.8 µM | [12] 18.3 µM | [13] 14 µM

CCc1cccc(CC)c1NC(=O)C1=CNC(C)=C(C(=O)Nc2c(CC)cccc2CC)C1c1ccc(O)c(OC)c1 (stereo not given)
inactive: [1] 36.6 µM | [2] 34.5 µM | [3] 33.3 µM | [4] 30.1 µM | [5] 28.1 µM | [6] 22.3 µM | [7] 29.1 µM | [15] 42.4 µM | [8] 40.6 µM | [9] 31.6 µM | [10] 47.4 µM | [11] 32.3 µM | [12] 21.5 µM | [13] 33.7 µM

O=C1C=CC(S(=O)(=O)C2=C/C(=C/Nc3ccc(Cl)cc3)C(=O)C=C2)=C/C1=C/Nc1ccc(Cl)cc1
inactive: [14] > 100 µM | [1] > 100 µM | [2] > 100 µM | [3] > 100 µM | [4] > 100 µM | [5] > 100 µM | [6] > 100 µM | [7] > 100 µM | [15] > 100 µM | [8] > 100 µM | [9] > 100 µM | [10] > 100 µM | [11] > 100 µM | [12] > 100 µM | [13] > 100 µM

FC(F)(F)C12C34C=CC5(CCC6(C=CC1(CC3)O6)C52C(F)(F)F)O4 (stereo not given)
inactive: [14] > 100 µM | [1] > 100 µM | [3] > 100 µM | [4] > 100 µM | [5] > 100 µM | [6] > 100 µM | [15] > 100 µM | [8] > 100 µM | [9] > 100 µM | [10] > 100 µM | [12] > 100 µM | [13] > 100 µM

Nc1ccc(-c2cc(C(=O)Nc3nccs3)nc(S)n2)cc1
inactive: [1] > 100 µM | [2] > 100 µM | [3] > 100 µM | [4] > 100 µM | [5] > 100 µM | [6] > 100 µM | [7] > 100 µM | [15] > 100 µM | [8] > 100 µM | [9] > 100 µM | [11] > 100 µM | [12] > 100 µM | [13] > 100 µM

CCOc1ccccc1NC(=O)CCc1nnc2s/c(=C\CCc3ccccc3)c(=O)n12
inactive: [14] > 100 µM | [1] > 100 µM | [2] > 100 µM | [3] > 100 µM | [4] > 100 µM | [5] > 100 µM | [6] > 100 µM | [7] > 100 µM | [15] > 100 µM | [8] > 100 µM | [9] > 100 µM | [10] > 100 µM | [11] > 100 µM | [12] > 100 µM | [13] > 100 µM

CN1C(=O)N(C)C(N2CCCC2)c2c1nc1ccccn1c2=O (stereo not given)
inactive: [14] 34.8 µM | [1] > 100 µM | [2] 68.9 µM | [3] > 100 µM | [4] > 100 µM | [5] > 100 µM | [6] > 100 µM | [7] > 100 µM | [15] 42.7 µM | [8] > 100 µM | [9] > 100 µM | [10] 76.9 µM | [12] 37.6 µM | [13] > 100 µM

CC(Oc1ccc(OCC2CCCCC2)cc1)C(=O)NCc1ccco1 (stereo not given)
inactive: [2] 18.7 µM | [3] 43.6 µM | [4] 28.8 µM | [5] 27 µM | [6] 34.9 µM | [7] 28.3 µM | [8] 98.9 µM | [9] 34.9 µM | [10] 36.6 µM | [11] 15.7 µM | [12] 41 µM | [13] 24.9 µM

Cn1c(N)[n+](C(=O)OCc2ccccc2)c(=O)c2c1ncn2C(=O)OCc1ccccc1
inactive: [1] 46.2 µM | [2] 50.9 µM | [3] > 100 µM | [4] 18 µM | [5] > 100 µM | [6] > 100 µM | [7] 14.4 µM | [8] 28.1 µM | [9] 73.1 µM | [10] > 100 µM | [11] > 100 µM | [12] > 100 µM | [13] > 100 µM

N#C/N=C(/N)NCc1ccccc1
inactive: [14] > 100 µM | [1] > 100 µM | [2] > 100 µM | [3] > 100 µM | [4] > 100 µM | [5] > 100 µM | [6] > 100 µM | [7] > 100 µM | [15] > 100 µM | [8] > 100 µM | [9] > 100 µM | [10] 23.4 µM | [11] > 100 µM | [12] > 100 µM | [13] > 100 µM

COCN1COCN/C1=N\C#N
inactive: [14] 20.9 µM | [1] > 100 µM | [2] > 100 µM | [3] > 100 µM | [4] > 100 µM | [5] > 100 µM | [6] > 100 µM | [7] > 100 µM | [15] > 100 µM | [8] > 100 µM | [9] > 100 µM | [10] > 100 µM | [11] > 100 µM | [13] > 100 µM
